{
  "source": "patent US11099176B2",
  "about": "(priority 2015, dated 2021)",
  "key": {"[1]": {"system": "Anaeromyxobacter dehalogenans adLacBP9, YP_466099.1, SEQ ID NO: 9 (expressed form SEQ ID NO: 23)", "experiment": "Lactate binding by thermal stability shift and labeled conjugate", "details": "thermostability vs ligand concentration; fluorescence response of labeled conjugate", "excerpt": "(§1) These experiments comprise four successive steps: • 1. Synthetic gene construction. The amino acid sequence of the homology leads are back translated into DNA sequences. These are optimized for directing heterologous cytoplasmic expression of the protein homologues in E. coli, using either the OrfOpt or OrfMorph programs. These programs predict mRNA sequences that direct high-level protein expression in E. coli. The predicted gene sequences are assembled de novo from synthetic oligonucleotides. • 2. Heterologous protein expression of the homologues in E. coli. Plasmids carrying the synthetic expression constructs (see above) were transformed into KRX competent cells (Promega). Protein production was induced in bacterial cultures of these cultures. • 3. Purification of successfully expressed protein using immobilized metal affinity chromatography. • 4.\n(§2) The thermal stability of purified LacBP candidate proteins was determined by measuring the temperature-dependence of the fluorescence signal of an extrinsically added dye, SYPRO, using a Roche LightCycler (Layton and Hellinga, 2010, Biochemistry, 49, 10831-41). The total fluorescence intensity, S, is given by S=βFfF+βUfU 11 where fF and fU are the fractions of protein in the folded and unfolded states, respectively, and βF and βUthe fluorescence baselines of these two states. To get the fractions of the two states, we have\n(§3) To obtain the temperature dependence of the binding reaction, the Kd values of all the individually determined isotherms were fit the Gibbs-Hemholtz equation (Layton and Hellinga, 2010, Biochemistry, 49, 10831-41): […]"}, "[2]": {"target": "T1, Flexistipes sinusarabici fsLacBP13, YP_004603455.1, SEQ ID NO: 13 (expressed form SEQ ID NO: 27) (Flexistipes sinusarabici, UniProt F8E724)", "T1 construct": "thermal shift", "T1 sequence (F8E724 entry or part of it)": "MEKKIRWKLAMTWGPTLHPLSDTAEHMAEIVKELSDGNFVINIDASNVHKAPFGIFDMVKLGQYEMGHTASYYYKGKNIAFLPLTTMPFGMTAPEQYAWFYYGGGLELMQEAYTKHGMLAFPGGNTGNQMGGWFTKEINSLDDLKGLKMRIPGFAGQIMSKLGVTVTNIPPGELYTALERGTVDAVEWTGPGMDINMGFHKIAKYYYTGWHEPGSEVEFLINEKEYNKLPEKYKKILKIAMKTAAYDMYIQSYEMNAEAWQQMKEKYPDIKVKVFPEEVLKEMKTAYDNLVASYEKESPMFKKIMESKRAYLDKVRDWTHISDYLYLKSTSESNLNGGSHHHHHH", "experiment": "Lactate binding by thermal stability shift and labeled conjugate", "details": "thermostability vs ligand concentration; fluorescence response of labeled conjugate", "excerpt": "as §1, §2, §3"}, "[3]": {"target": "Pseudomonas stuztzeri psLacBP11, YP_006522676.1, SEQ ID NO: 11 (expressed form SEQ ID NO: 25) (Stutzerimonas nitrititolerans, UniProt A0ABX9V4I2)", "sequence (A0ABX9V4I2 entry or part of it)": "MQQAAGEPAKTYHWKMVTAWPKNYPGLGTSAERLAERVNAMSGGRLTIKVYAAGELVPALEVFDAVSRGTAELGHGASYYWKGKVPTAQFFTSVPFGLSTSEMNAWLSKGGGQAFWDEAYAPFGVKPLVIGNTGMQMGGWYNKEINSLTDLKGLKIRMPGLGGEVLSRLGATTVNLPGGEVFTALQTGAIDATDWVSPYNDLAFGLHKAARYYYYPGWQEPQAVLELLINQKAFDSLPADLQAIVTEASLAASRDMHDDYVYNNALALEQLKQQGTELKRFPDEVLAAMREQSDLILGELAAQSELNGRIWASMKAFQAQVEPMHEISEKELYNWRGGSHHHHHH", "experiment": "Lactate binding by thermal stability shift and labeled conjugate", "details": "thermostability vs ligand concentration; fluorescence response of labeled conjugate", "excerpt": "as §1, §2, §3"}, "[4]": {"target": "Marinobacter sp. msLacBP6 variant G170C, SEQ ID NO: 36, Acrylodan conjugate", "experiment": "Fluorescence titration of conjugate", "format": "binding", "details": "λ1 518, λ2 490 nm"}, "[5]": {"target": "Marinobacter sp. msLacBP6 variant G170C, SEQ ID NO: 36, Badan conjugate", "experiment": "Fluorescence titration of conjugate", "format": "binding", "details": "read-out: trueKd (lactate); monochromatic, 520 nm"}, "[6]": {"target": "Marinobacter sp. msLacBP6 variant Y187C, C-terminal βZif fusion, SEQ ID NO: 61, Acrylodan and βZif 5IAF (Fluorescein) conjugate", "experiment": "Fluorescence titration of doubly labeled conjugate (ngmFRET)", "format": "binding", "excerpt": "(§4) We tested whether non-geometrically modulated fluorescence energy transfer (ngmFRET) effects in doubly labeled proteins could improve ratiometric signaling. To this end, we fused a small, disulfide-containing domain, βZif (Smith et al., 2005, Protein Sci, 14, 64-73) to the C-terminus of msLacBP6 187C (Table 5). This arrangement enables independent, site-specific labeling with two different, thiol-reactive fluorophores by first reacting at the unprotected thiol in the msLacBP6, followed by a reduction of the […] disulfide to deprotect and label this second site with a second fluorophore. […] Indirectly responsive partners are selected according to their excitation and emission characteristics such that energy transfer is established between the two fluorophores. […] Mechanisms for non-geometrically modulated FRET (ngmFRET) effects are detailed in Materials and Methods and PCT International Patent Application No. PCT/US 16/62958, filed Nov. 19, 2016, the entire content of which is incorporated herein by reference.\n(§5) In the Badan conjugates, the ngmFRET coupling was so strong that all the donor excited state energy was transferred to the acceptor, and the signal was converted from a dichromatic to a monochromatic response. In the Acrylodan conjugates, an improvement in the dichromatic signal was observed (FIG. 7).\n(§6) Temperatures were advanced in 1K steps. […] Under these experimental photobleaching was not observed."}, "[7]": {"target": "Marinobacter sp. msLacBP6 variant Y187C, C-terminal βZif fusion, SEQ ID NO: 61, Acrylodan and βZif Alexa532 conjugate", "experiment": "Fluorescence titration of doubly labeled conjugate (ngmFRET)", "format": "binding", "excerpt": "as §4, §5, §6"}, "[8]": {"target": "Marinobacter sp. msLacBP6 variant Y187C (187C), SEQ ID NO: 38, Badan conjugate", "experiment": "Fluorescence titration of conjugate", "format": "binding"}, "[9]": {"target": "Marinobacter sp. msLacBP6 variant 187C, F68L, SEQ ID NO: 49, Acrylodan conjugate", "experiment": "Fluorescence titration of conjugate (affinity tuning)", "format": "binding", "details": "λ1 459, λ2 516 nm"}, "[10]": {"target": "Marinobacter sp. msLacBP6 variant 187C, L70I, SEQ ID NO: 52, Acrylodan conjugate", "experiment": "Fluorescence titration of conjugate (affinity tuning)", "format": "binding", "details": "λ1 452, λ2 582 nm"}, "[11]": {"target": "Marinobacter sp. msLacBP6 variant 187C, L70M, SEQ ID NO: 53, Acrylodan conjugate", "experiment": "Fluorescence titration of conjugate (affinity tuning)", "format": "binding", "details": "λ1 455, λ2 479 nm"}, "[12]": {"target": "Marinobacter sp. msLacBP6 variant 187C, P150A, SEQ ID NO: 54, Acrylodan conjugate", "experiment": "Fluorescence titration of conjugate (affinity tuning)", "format": "binding", "details": "read-out: trueKd (lactate); monochromatic, 463 nm"}},
  "note": "Read-outs that look alike come from different tables or passages of the source.",
  "data": [
    {"smiles": "C[C@H](O)C(=O)O", "note": "[lactate]", "values": [
      {"measurement": "Lactate Binding", "setting": "[1]", "value": "weak^f,g"},
      {"measurement": "Lactate Binding", "setting": "[2]", "value": "weak^f,g"},
      {"measurement": "Lactate Binding", "setting": "[3]", "value": "weak^f,g"},
      {"measurement": "Kd", "setting": "[4]; read-out: appKd (lactate)", "value": 10, "unit": "µM"},
      {"measurement": "Kd", "setting": "[4]; read-out: trueKd (lactate)", "value": 5, "unit": "µM"},
      {"measurement": "Kd", "setting": "[5]", "value": 20, "unit": "µM"},
      {"measurement": "Kd", "setting": "[6]; read-out: appKd (lactate), λ1 452, λ2 520 nm", "value": 300, "unit": "µM"},
      {"measurement": "Kd", "setting": "[6]; read-out: trueKd (lactate), λ1 452, λ2 520 nm", "value": 300, "unit": "µM"},
      {"measurement": "Kd", "setting": "[7]; read-out: appKd (lactate), λ1 452, λ2 550 nm", "value": 400, "unit": "µM"},
      {"measurement": "Kd", "setting": "[7]; read-out: trueKd (lactate), λ1 452, λ2 550 nm", "value": 300, "unit": "µM"},
      {"measurement": "Kd", "setting": "[8]; read-out: appKd (lactate), approximate, text statement for Acrylodan and Badan conjugates", "value": "~400", "unit": "µM"},
      {"measurement": "Kd", "setting": "[8]; read-out: appKd (lactate), λ1 460, λ2 537 nm", "value": 300, "unit": "µM"},
      {"measurement": "Kd", "setting": "[8]; read-out: appKd (lactate), λ1 539, λ2 459 nm (Table 6)", "value": 110, "unit": "µM"},
      {"measurement": "Kd", "setting": "[8]; read-out: trueKd (lactate), λ1 460, λ2 537 nm", "value": 200, "unit": "µM"},
      {"measurement": "Kd", "setting": "[8]; read-out: trueKd (lactate), λ1 539, λ2 459 nm (Table 6)", "value": 250, "unit": "µM"},
      {"measurement": "Kd", "setting": "[9]; read-out: appKd (lactate)", "value": 600, "unit": "µM"},
      {"measurement": "Kd", "setting": "[9]; read-out: trueKd (lactate)", "value": 500, "unit": "µM"},
      {"measurement": "Kd", "setting": "[10]; read-out: appKd (lactate)", "value": 400, "unit": "µM"},
      {"measurement": "Kd", "setting": "[10]; read-out: trueKd (lactate)", "value": 300, "unit": "µM"},
      {"measurement": "Kd", "setting": "[11]; read-out: appKd (lactate)", "value": 1600, "unit": "µM"},
      {"measurement": "Kd", "setting": "[11]; read-out: trueKd (lactate)", "value": 1200, "unit": "µM"},
      {"measurement": "Kd", "setting": "[12]", "value": 6800, "unit": "µM"}
    ]}
  ]
}
